On the set-up of data set [1]: method as in Woosley and Romer, 1999; key: 1: Known risk; 2: Conditional risk; NC: Not classified, i.e., evidence was not enough to add it to any risk category. To be noted: CredibleMeds category; ref Woosley and Romer, 1999; cited from earlier work.
For another data set, the target named is T1, hKv4.3 (Homo sapiens, UniProt Q9UK17).
T1 construct: expressed in transfected cells; host or cells: HEK-293
T1 sequence (Q9UK17 1-655): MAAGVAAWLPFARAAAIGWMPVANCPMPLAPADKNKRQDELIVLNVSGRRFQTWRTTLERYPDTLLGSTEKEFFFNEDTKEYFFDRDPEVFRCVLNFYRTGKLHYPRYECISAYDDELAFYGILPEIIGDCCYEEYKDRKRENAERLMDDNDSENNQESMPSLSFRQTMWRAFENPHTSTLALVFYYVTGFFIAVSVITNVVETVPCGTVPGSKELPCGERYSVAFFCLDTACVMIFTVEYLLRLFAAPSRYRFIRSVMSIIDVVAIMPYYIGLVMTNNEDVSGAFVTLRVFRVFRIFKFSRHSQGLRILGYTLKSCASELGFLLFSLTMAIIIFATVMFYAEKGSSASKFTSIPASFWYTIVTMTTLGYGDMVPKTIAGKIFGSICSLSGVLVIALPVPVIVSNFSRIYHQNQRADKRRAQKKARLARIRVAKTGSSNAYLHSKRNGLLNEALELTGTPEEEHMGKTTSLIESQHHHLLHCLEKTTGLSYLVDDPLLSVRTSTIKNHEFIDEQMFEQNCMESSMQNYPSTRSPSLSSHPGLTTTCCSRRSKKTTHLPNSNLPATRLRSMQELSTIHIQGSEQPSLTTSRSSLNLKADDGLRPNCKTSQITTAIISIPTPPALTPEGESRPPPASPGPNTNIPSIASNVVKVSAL
The data set is described as follows: Automated patch clamp (QPatch), transient outward K+ current Ito. The format is cell-based. To be noted: room temperature; dash = no effect or IC50 much higher than tested concentrations. (In general: Patch clamp records ionic current or voltage across a cell membrane.)

The test system of the next data set is rabbit Purkinje fibers. The data set is described as follows: In vitro drug assay on rabbit Purkinje fibers (microelectrode AP recordings). As to conditions: for EADs occurrence in rabbit experiments / Risk classification based on EADs occurrence, in vitro rabbit: slow pacing; for EADs occurrence in rabbit experiments: across tested concentrations; for ΔAPD90 Exp: Normal pacing (1 Hz); for Risk classification based on EADs occurrence, in vitro rabbit: compared with clinical risk.

Data set [2] concerns the target T2, hNav1.5 (Homo sapiens, UniProt Q14524).
T2 construct: expressed in transfected cells; host or cells: HEK-293
The data set is described as follows: Automated patch clamp (QPatch), fast Na+ current INa. The class given is cell-based. As to conditions: room temperature; dash = no effect or IC50 much higher than tested concentrations.

Another data set concerns rabbit hearts. To be noted: cited from earlier work.
The target in data set [3] is T3, hCav1.2 (Homo sapiens, UniProt Q13936).
T3 construct: expressed in transfected cells; host or cells: CHO
The data set is described as follows: Automated patch clamp (QPatch), L-type Ca2+ current ICaL. To be noted: room temperature; dash = no effect or IC50 much higher than tested concentrations. The format is cell-based.

The subject of another data set is hiPSC-CMs. To be noted: 100 µM; ref Blinova et al., 2018; Yu et al., 2019; cited from earlier work.
Data set [4] has as its target T2, hNav1.5. On the set-up: method as in Crumb et al., 2016. To be noted: ref Crumb et al., 2016; cited from earlier work.
In data set [5] the target is T3, hCav1.2. As to conditions: ref Crumb et al., 2016; cited from earlier work.
On the set-up of data set [6]: method as in Démolis et al., 2003. To be noted: therapeutic doses; ref Démolis et al., 2003; cited from earlier work.
Another data set deals with T4, hERG (Homo sapiens, UniProt Q12809).
T4 construct: host or cells: CHO (hERG-CHO) and HEK-293 stably transfected with hERG cDNA
To be noted: ref Crumb et al., 2016; cited from earlier work.

“Also recorded” adds a separate entry of the source. Like-named read-outs stand apart in the source and are kept apart here.

T3 sequence (Q13936 whole entry): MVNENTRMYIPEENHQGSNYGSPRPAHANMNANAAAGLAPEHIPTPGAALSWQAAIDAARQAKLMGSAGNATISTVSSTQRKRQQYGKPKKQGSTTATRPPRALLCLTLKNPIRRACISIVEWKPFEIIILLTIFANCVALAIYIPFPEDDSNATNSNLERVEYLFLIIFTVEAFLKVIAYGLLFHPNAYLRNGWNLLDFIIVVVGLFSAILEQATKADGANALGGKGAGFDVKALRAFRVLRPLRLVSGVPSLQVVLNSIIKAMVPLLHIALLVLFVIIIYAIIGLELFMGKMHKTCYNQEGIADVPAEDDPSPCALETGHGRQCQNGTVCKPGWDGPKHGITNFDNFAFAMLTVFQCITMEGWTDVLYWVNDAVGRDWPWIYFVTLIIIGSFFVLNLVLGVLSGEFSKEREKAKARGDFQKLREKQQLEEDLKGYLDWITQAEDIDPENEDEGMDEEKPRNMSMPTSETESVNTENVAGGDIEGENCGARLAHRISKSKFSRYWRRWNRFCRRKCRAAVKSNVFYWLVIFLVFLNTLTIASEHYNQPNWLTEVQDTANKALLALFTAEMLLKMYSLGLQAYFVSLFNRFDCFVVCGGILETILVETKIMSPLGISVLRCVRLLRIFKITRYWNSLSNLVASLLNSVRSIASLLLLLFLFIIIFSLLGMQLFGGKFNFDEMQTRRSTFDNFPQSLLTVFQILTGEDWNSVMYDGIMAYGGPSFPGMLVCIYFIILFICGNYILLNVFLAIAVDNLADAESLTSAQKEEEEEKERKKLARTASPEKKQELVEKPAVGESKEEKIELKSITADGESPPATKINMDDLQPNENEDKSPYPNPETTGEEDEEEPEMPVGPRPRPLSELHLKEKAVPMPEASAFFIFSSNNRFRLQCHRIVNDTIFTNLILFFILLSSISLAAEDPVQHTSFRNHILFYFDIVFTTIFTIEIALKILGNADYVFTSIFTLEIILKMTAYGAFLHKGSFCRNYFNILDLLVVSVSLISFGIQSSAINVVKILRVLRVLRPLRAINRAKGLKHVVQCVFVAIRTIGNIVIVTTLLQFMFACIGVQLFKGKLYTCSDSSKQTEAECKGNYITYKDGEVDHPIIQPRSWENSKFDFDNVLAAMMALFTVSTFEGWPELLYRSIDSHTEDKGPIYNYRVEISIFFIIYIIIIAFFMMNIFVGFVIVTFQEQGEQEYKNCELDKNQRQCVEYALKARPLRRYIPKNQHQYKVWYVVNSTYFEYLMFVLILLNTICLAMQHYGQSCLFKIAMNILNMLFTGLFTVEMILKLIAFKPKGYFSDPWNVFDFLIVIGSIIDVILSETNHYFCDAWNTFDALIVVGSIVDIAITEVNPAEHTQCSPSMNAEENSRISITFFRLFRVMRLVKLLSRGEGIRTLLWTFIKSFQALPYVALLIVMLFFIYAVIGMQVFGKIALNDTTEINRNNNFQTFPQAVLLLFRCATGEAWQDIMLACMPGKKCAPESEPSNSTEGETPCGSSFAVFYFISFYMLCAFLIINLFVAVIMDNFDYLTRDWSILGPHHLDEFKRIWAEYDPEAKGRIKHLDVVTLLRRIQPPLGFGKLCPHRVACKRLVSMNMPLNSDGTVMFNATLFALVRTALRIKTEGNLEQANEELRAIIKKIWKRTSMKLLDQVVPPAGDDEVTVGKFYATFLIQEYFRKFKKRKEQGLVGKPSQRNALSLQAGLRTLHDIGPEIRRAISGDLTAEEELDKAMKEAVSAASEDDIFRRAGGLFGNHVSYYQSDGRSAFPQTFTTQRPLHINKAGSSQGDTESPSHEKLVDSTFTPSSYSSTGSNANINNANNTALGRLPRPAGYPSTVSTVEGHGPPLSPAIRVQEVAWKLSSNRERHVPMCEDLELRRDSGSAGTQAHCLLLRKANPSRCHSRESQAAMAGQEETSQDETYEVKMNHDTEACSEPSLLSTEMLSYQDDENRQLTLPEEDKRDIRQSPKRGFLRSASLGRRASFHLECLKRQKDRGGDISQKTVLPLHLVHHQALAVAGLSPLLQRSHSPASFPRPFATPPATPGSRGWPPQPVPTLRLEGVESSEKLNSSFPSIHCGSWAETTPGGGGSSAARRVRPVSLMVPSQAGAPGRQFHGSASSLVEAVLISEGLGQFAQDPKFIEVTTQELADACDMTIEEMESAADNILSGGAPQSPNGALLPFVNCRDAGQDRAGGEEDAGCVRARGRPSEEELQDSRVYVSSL
T2 sequence (Q14524 whole entry): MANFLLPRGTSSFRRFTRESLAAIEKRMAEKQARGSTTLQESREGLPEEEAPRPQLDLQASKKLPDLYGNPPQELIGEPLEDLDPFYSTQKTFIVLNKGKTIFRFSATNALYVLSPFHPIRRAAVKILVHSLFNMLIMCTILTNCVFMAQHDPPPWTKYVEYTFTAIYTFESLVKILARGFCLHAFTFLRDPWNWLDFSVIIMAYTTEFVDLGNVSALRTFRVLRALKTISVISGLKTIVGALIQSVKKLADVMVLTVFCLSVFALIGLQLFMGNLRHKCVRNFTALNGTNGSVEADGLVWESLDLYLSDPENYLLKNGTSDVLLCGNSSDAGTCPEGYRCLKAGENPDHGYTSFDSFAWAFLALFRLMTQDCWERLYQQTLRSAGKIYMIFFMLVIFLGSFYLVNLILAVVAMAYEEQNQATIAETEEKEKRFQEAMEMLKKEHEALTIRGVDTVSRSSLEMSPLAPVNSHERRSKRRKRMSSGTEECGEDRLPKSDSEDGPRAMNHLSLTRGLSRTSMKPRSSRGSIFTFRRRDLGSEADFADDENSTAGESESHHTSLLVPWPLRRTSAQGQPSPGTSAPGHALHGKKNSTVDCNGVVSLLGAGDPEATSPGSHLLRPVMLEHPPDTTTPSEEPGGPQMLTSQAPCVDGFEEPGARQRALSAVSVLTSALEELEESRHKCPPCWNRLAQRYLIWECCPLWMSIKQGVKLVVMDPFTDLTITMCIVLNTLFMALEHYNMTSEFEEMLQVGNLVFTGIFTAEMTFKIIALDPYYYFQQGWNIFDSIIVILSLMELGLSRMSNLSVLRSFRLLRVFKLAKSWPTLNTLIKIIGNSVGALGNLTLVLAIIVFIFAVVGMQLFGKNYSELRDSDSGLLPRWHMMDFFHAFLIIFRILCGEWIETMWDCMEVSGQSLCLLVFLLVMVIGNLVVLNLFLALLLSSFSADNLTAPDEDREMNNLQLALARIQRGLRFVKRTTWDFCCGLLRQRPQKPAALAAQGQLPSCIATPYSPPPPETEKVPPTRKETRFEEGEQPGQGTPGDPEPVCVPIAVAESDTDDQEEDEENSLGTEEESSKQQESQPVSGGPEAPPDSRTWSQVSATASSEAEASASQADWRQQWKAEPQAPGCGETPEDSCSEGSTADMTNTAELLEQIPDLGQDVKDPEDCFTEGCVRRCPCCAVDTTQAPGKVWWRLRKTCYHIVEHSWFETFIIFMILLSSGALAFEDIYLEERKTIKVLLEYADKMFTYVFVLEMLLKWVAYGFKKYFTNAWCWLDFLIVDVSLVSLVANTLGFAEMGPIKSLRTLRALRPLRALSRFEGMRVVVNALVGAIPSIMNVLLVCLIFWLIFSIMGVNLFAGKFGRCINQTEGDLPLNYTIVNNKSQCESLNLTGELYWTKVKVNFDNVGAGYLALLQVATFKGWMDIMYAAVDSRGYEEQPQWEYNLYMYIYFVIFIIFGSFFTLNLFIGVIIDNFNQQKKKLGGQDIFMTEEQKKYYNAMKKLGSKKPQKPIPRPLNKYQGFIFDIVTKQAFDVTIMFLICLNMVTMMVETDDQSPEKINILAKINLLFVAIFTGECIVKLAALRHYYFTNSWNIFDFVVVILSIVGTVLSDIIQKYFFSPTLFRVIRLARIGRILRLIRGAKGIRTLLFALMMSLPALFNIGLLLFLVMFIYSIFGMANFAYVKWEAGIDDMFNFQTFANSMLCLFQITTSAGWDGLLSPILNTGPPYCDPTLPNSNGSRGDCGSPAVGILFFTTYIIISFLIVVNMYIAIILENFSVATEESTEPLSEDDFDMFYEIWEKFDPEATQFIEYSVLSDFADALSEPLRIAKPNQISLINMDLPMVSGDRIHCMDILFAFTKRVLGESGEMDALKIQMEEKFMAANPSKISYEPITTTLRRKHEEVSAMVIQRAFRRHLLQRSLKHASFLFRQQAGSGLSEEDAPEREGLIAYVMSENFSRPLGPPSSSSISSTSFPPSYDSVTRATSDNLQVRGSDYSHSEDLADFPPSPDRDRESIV

On to `C=C[C@H]1C[N@@]2CC[C@H]1C[C@@H]2[C@@H](O)c1ccnc2ccc(OC)cc12` [Quinidine], for which the TdP risk in data set [1] was 1.
As a reminder, the IC50 is the concentration that inhibits the measured activity by half. On to `COc1ccc(CCN2CCC(Nc3nc4ccccc4n3Cc3ccc(F)cc3)CC2)cc1` [Astemizole], for which, at hKv4.3, the IC50 worked out at 22 µM. The “EADs occurrence in rabbit experiments” value in the data set on rabbit Purkinje fibers is listed as “induced EADs”. For the same compound, the TdP risk in data set [1] is 1.
Take `CC(C)NCC(O)c1ccc(NS(C)(=O)=O)cc1` (stereo not drawn) [Sotalol]: the “ΔAPD90 Exp” value with rabbit Purkinje fibers (30 μM) stood at 96%.
Turning to `CC(C)COCC(CN(Cc1ccccc1)c1ccccc1)N1CCCC1` (stereo not drawn) [Bepridil], the IC50 against hKv4.3 was 13 µM; on hNav1.5 [2], 3.1 µM. Also, the “EADs occurrence in rabbit experiments” value with rabbit Purkinje fibers is given as “no EADs were observed”. Also, in the data set with rabbit Purkinje fibers, the “Risk classification based on EADs occurrence, in vitro rabbit” value is recorded as “misclassified”. The “EADs in rabbit hearts” value in the data set with rabbit hearts (up to 10 µM, ref Anno et al., 1984, Hondeghem et al., 2003) is “did not induce EADs”. Besides, in [1], the TdP risk is given as 1.
Turning to `COc1ccccc1OCC(O)CN1CCN(CC(=O)Nc2c(C)cccc2C)CC1` (stereo not drawn) [Ranolazine], in the data set on rabbit Purkinje fibers, the “EADs occurrence in rabbit experiments” value was “no EADs were observed” and the “Risk classification based on EADs occurrence, in vitro rabbit” value is reported as “misclassified”. For the same compound, 156 µM corresponded to half-maximal inhibition at hCav1.2 [3] (IC50). Further, in the data set on hiPSC-CMs, the “EADs in hiPSC-CMs” value was “induced EADs”. Besides, in the data set on rabbit hearts (10 µM, ref Frommeyer et al., 2012, Sossalla et al., 2014), the “Effect in rabbit hearts” value is “anti-torsadogenic effects”. The TdP risk in data set [1] is 2.
Compound `COC(=O)C1=C(C)NC(C)=C(C(=O)OC)C1c1ccccc1[N+](=O)[O-]` [Nifedipine] displayed an IC50 against hKv4.3 of 31 µM. For the same compound, in the data set on rabbit Purkinje fibers, the “EADs occurrence in rabbit experiments” value is given as “did not induce any EADs” and the “Risk classification based on EADs occurrence, in vitro rabbit” value was “correctly classified as safe”.
In turn, `CC(C)N(CCC(C(N)=O)(c1ccccc1)c1ccccn1)C(C)C` (stereo not drawn) [Disopyramide] showed an IC50 on hCav1.2 [3] of 114 µM. The TdP risk in [1] was 1.
With `CC[C@H]1OC(=O)[C@H](C)[C@@H](O[C@H]2C[C@@](C)(OC)[C@@H](O)[C@H](C)O2)[C@H](C)[C@@H](O[C@@H]2O[C@H](C)C[C@H](N(C)C)[C@H]2O)[C@](C)(OC)C[C@@H](C)C(=O)[C@H](C)[C@@H](O)[C@]1(C)O` [Clarithromycin], in the data set on rabbit Purkinje fibers (30 μM), the “ΔAPD90 Exp” value is recorded as 51%. For the same compound, the figures for the IC50 on hNav1.5 [4], on hCav1.2 [5] and on hERG were 163 µM, 103 µM and 62.5 µM, respectively. The QT prolongation result in data set [6] was “no QT prolongation at therapeutic doses”. Moreover, in data set [1], the TdP risk is 1.
`CC(C)(C)c1ccc(C(O)CCCN2CCC(C(O)(c3ccccc3)c3ccccc3)CC2)cc1` (stereo not drawn) [Terfenadine] displayed a half-maximal inhibitory concentration (IC50) against hKv4.3 of 68 µM. Also, the “Risk classification based on mean APD90 prolongation >10%, in vitro rabbit” value in the data set on rabbit Purkinje fibers (1 Hz) is “false negative”. The “AP prolongation in vitro rabbit experiments” value with rabbit Purkinje fibers (APD90 at 1 Hz, maximum over tested concentrations) is recorded as “up to 7%”. Besides, in the data set with rabbit Purkinje fibers, the “EADs occurrence in rabbit experiments” value is given as “no EADs were observed” and the “Risk classification based on EADs occurrence, in vitro rabbit” value was “misclassified”.
Take `Cc1nc2n(c(=O)c1CCN1CCC(c3noc4cc(F)ccc34)CC1)CCCC2` [Risperidone]: the TdP risk in [1] is 2.
For the compound `CN(CCOc1ccc(NS(C)(=O)=O)cc1)CCc1ccc(NS(C)(=O)=O)cc1` [Dofetilide], in the data set on rabbit Purkinje fibers (0.01 μM), the “ΔAPD90 Exp” value was 113%. In [1], the TdP risk is given as 1.
For the compound `COc1cc(N)c(Cl)cc1C(=O)NC1CCN(CCCOc2ccc(F)cc2)CC1OC` (stereo not drawn) [Cisapride], the “EADs occurrence in rabbit experiments” value in the data set on rabbit Purkinje fibers is on record as “induced EADs”. The compound further had an IC50 at hCav1.2 [3] of 33 µM. For the same compound, the TdP risk in data set [1] is 1.
Take `COc1ccc([C@@H]2Sc3ccccc3N(CCN(C)C)C(=O)[C@@H]2OC(C)=O)cc1` [Diltiazem]: 84 µM corresponded to half-maximal inhibition at hKv4.3 (IC50). In addition, in the data set with rabbit Purkinje fibers, the “EADs occurrence in rabbit experiments” value is listed as “did not induce any EADs; also recorded: did not induce any repolarization abnormalities” and the “Risk classification based on EADs occurrence, in vitro rabbit” value is “correctly classified as safe”.

Source of the values: article PMC9581132, “Cross clinical-experimental-computational qualification of in silico drug trials on human cardiac purkinje cells for proarrhythmia risk prediction” (Frontiers in Toxicology, 2022).
